Source: patent US20020025314A1, “Homeopathic compositions for the treatment of viral and metabolic deseases” (priority 1992, published 2002)

How the values were obtained:
[1] = system: child suffering from juvenile chronic polyarthritis; test: Case No. 3: clinical course of juvenile chronic polyarthritis; assay type: in vivo, human; settings: 1 tbl of 250 mg a day, before homeopathic treatment; disease worsens
[2] = system: patient presenting with hyperthyroidism due to multinodular thyroid hyperplasia, and morning allergic rhinitis; test: Case No. 2: TSH / free T4 and allergic rhinitis in a patient with hyperthyroidism; assay type: in vivo, human; settings: for course of hyperthyroidism / thyroid hormone level under treatment: a few days of Basdene, 10 days of Neomercazole; for TSH: normal 0.2 to 4; for T4f: normal 10 to 25
Text: A patient presenting with hyperthyroidism due to multinodular thyroid hyperplasia, and morning allergic rhinitis.
The normal levels are 0.2 to 4 for TSH and 10 to 25 for T4f. The TSH is abnormally low and the free T4 abnormally high. The patient receives treatment with a synthetic thyroid inhibitor, namely Basdene 9 on its own, starting on February 22, at increasing doses of 1 tbl on the 1st day, 2 tbl on the 2nd day and then 3 tbl per day. on 3 March TSH: 0.02
On March 7, the patient is seen again by the consultant and, in place of Basdene®, Neo-mercazole® is prescribed at doses of 3 tbl 3 times a day:
On March, 20 the patient is seen again and the following is added to the Neo-mercazole treatment for the allergic rhinitis:
Natrium muriaticum 6DH, 3 tbl/1 for 7 days, then
Natrium muriaticum 4CH, 3 granules/1 for 15 days.
In order to know whether it is the Natrium muriaticum or the Neomercazole 9 which has normalized the thyroid functions, the Neo-mercazole® is suddenly withdrawn, which, if it is the Neo-mercazole® which has lowered the T4f, should have the effect of raising it immediately to 30, and the regular administration of Natrium muriaticum 4CH is continued on April 13.
Natrium muriaticum 6DH: 3tbl/day from March 20 to April 11, then Natrium muriaticum 4CH: 3 granules/day from April 11 to April 28. On April 28, the patient is seen again by the consultant and the prescribed dose of Natrium muriaticum is further modified, being increased to Natrium muriaticum 5CH: 3 granules a day. The Neo-mercazole® was of course never restarted. The effect of this change in doses of Natrium muriaticum is to further lower the thyroid hormone:
The following dose of Natrium Muriaticum 5CH is still continued from this time on: 3 granules a day.
There was no cancer on the operated part. On August 1 the result of this operation is a T4f of 13.8, which is now near the lower limit of the norm (the norm being 10 to 25). A tendency towards hypothyroidism might be feared.

[3] = on 17 March, after 10 days of Neo-mercazole 3 tbl 3 times a day

SMILES	suppression of polyarticular symptoms [1]	course of hyperthyroidism / thyroid hormone level under treatment [2]	TSH [2, 3]	T4f [2, 3]	TSH ([2]; on 3 March, Basdene on its own from February 22, up to 3 tbl per day, 0.02 before treatment)	T4f ([2]; on 3 March, Basdene on its own from February 22, up to 3 tbl per day, 35 before treatment)
COc1ccc2cc([C@H](C)C(=O)O)ccc2c1 [Naprosyn]	not sufficient to suppress the symptoms	–	–	–	–	–
CCOC(=O)n1ccn(C)c1=S [Neo-mercazole]	–	no improvement	0.02	33.8	–	–
Oc1cc(Cc2ccccc2)nc(S)n1 [Basdene]	–	remained identical and even become slightly worse	–	–	0.02	36.8
